In PMC11189555, “Aryl amino acetamides prevent Plasmodium falciparum ring development via targeting the lipid-transfer protein PfSTART1” (Nature Communications, 2024):
“And” between values parts separate entries of the source, which are not always exact repeats. Equal entries are not always repeated. Where two headings read alike, the source gives them in different places.

Test system: SLI-N309K parasites
Test: Growth inhibition assay (72 h, LDH activity)
Type: cell-based, Plasmodium falciparum
Conditions: for Growth inhibition, (1 - av / DMSO) x 100: Fig 2B source data, per biological replicate; for sample/DMSO: START(N309K), biological replicates 1-4; for EC50: Plasmodium falciparum
Protocol: Parasite growth assays with inhibitory compounds were performed as per[11] and are fully described in the Supplementary Information.
Molecular biology and transfection of P. falciparum: Selection Linked Integration […]
To introduce the PfSTART1 mutations, the second half of the coding sequence of pfstart1 (PF3D7_0104200), was recodonised without introns to the bias of Saccharomyces cerevisiae containing either WT, N309K or N330K mutations, and synthesised as gBlock fragments (Integrated DNA Technologies). The first 819 bp of the 5′ native sequence of pfstart1 was amplified from gDNA, to form the 5’ homology block (5’ HB). The 3′ recodonised gBlock fragment comprising of the last 552 bp of either the WT, N309K or N330K pfstart1 to form the ‘recodon’ block (primers listed in Table S2). The 5’ HB and recodon products were sewn together by overlapping PCR to reconstitute the full coding sequence of pfstart1. These blocks (WT/N309K/N330K) were digested with BglII/PstI, and inserted into the parasite vector p-HA-2A-Neo-glmS
1. This plasmid contains an in -frame haemagglutinin (HA) epitope for protein identification and a P2A peptide (2A) to skip continuous peptide bond synthesis of a downstream neomycin resistance gene ( NeoR).
Parasites containing the transfected DNA were selected using 2.5 nM WR99210 (Jacobus). To select for parasites in which single crossover integration had occurred into the pfstart1 locus, parasites were treated with 400 μg/mL G418 (geniticin, Sigma Aldrich) for 14 days: only parasites that have integrated the construct into their genome expressed the neomycin resistance gene together with the PfSTART1 protein.
Parasite lines were cloned using limiting dilution. These clones were then tested on Western Blot (for correct HA-tagging and protein size), and correct integration and sequence were tested by PCR analysis: PCR on the gDNA was conducted using the primers START_5’UTR.F and START_Seq.R (Table S2). […]
Growth inhibition assays. Synchronised ring-stage parasites (0.3-0.6% parasitemia, 2% haematocrit) were grown for 72 h in a serial-dilution of the compound under […]
and compound 4. Note that M-833 was first purchased from MolPort (MolPort -002-267-916) then made in-house at WEHI: the differences observed in EC50s across experiments are attributed to the different batches of M -833. For some experiments, 0, 0.25 or 2.5 mM of glucosamine (GlcN) was also added. Experiments were set up in technical duplicates or triplicates. Following a freeze -thaw cycle, lactate dehydrogenase (LDH) activity was assessed as an indicator of parasite growt h 5. 30 μL of parasite culture was incubated for 30 min in the dark with 75 μL Malstat mixture (0.1 M Tris pH 9.0, 20 g/L lactic acid, pH 7.5, 0.2% Triton-X100, 0.5 g/L acetylpyridine adenine dinucleotide (APAD, Sigma), 200 μg/mL nitroblue tetrazolium (NBT; Sigma), 1 μg/mL phenozine ethosulfate (PES; Sigma)). Absorbance was then measured at 650 nm, transformed using the formula below, plotted against the logarithm of the concentrations, and a non-linear regression (log(inhibitor) vs. response, variable slope) was calculated using GraphPad Prism to assess the half-inhibitory […]
Growth inhibition % = (1 − average(sample)− average(uRBC)) ∗ 100 […]
The DMSO samples were also used to assess growth of parasite in the presence of 0.25 and 2.5 mM GlcN (normalised by DMSO in 0 mM GlcN).
Egress, invasion & recovery assay. To measure egress, invasion and follow up recovery in the presence of different compounds, we adapted the method developed in6, using Hyp1-Nluc parasites7. These parasites episomally express the exported PEXEL protein Hyp1 (PF3D7_0113300) tagged with a NanoLuc luciferase (NLuc) and were selected with 2.5 nM WR99210 (Jacobus). Highly synchronised schizonts were obtained using ML10 (LifeArc) and sorbitol synchronisation, and Percoll-purified (the culture was gently layered over 67% Percoll (Cytiva) in RPMI, and centrifuged for 15 min at 1500 g and the schizont layer was collected and washed). […]

## Cc1cc(Cl)c(S(=O)(=O)N2CCCC2)cc1OCC(=O)NC1CCCCC1 [M-833]
SLI-N309K, M-833 conc 0.00304832 (unit not given)
  Growth inhibition, (1 - av / DMSO) x 100: -28.2579% and -1.2093% and -11.368%
SLI-N309K, M-833 conc 0.00914495 (unit not given)
  Growth inhibition, (1 - av / DMSO) x 100: -16.5589% and 4.977% and -8.756%
SLI-N309K, M-833 conc 0.0274348 (unit not given)
  Growth inhibition, (1 - av / DMSO) x 100: -9.0535% and 17.7442% and 3.575%
SLI-N309K, M-833 conc 0.0823045 (unit not given)
  Growth inhibition, (1 - av / DMSO) x 100: -11.797% and 21.4186% and -2.462%
SLI-N309K, M-833 conc 0.246914 (unit not given)
  Growth inhibition, (1 - av / DMSO) x 100: -0.0196% and 23.5116% and 10.1477%
SLI-N309K, M-833 conc 0.740741 (unit not given)
  Growth inhibition, (1 - av / DMSO) x 100: 27.0233% and 58.6744% and 26.0116%
SLI-N309K, M-833 conc 2.22222 (unit not given)
  Growth inhibition, (1 - av / DMSO) x 100: 70.1744% and 76.5116% and 55.7482%
SLI-N309K, M-833 conc 6.66667 (unit not given)
  Growth inhibition, (1 - av / DMSO) x 100: 87.2624% and 94.814% and 86.8337%
SLI-N309K, M-833 conc 20 (unit not given)
  Growth inhibition, (1 - av / DMSO) x 100: 88.5166% and 95.5116% and 93.0422%
M-833 0.00152416 uM, 0 mM GlcN
  sample/DMSO: 2.39
M-833 0.00152416 uM, 0.25 mM GlcN
  sample/DMSO: 4.826 and 2.498
M-833 0.00152416 uM, 2.5 mM GlcN
  sample/DMSO: 6.332
M-833 0.00457247 uM, 0 mM GlcN
  sample/DMSO: 13.8723 and 0.5123 and 3.546 and -3.543
M-833 0.00457247 uM, 0.25 mM GlcN
  sample/DMSO: 7.1 and 10.4012 and -2.062 and -3.605
M-833 0.00457247 uM, 2.5 mM GlcN
  sample/DMSO: 13.3216 and 19.7117 and 1.5728 and -5.599
M-833 0.0137174 uM, 0 mM GlcN
  sample/DMSO: 7.619 and -0.2396 and 1.751 and 10.2857
M-833 0.0137174 uM, 0.25 mM GlcN
  sample/DMSO: 8.4852 and 5.851 and 4.488 and 5.637
M-833 0.0137174 uM, 2.5 mM GlcN
  sample/DMSO: 21.8449 and 8.908 and 5.227 and 1.886
M-833 0.0411523 uM, 0 mM GlcN
  sample/DMSO: 1.68 and 3.644 and 4.3 and 2.606
M-833 0.0411523 uM, 0.25 mM GlcN
  sample/DMSO: 17.5682 and 13.2615 and 4.177 and 1.848
M-833 0.0411523 uM, 2.5 mM GlcN
  sample/DMSO: 19.1718 and 12.6822 and 8.512 and 8.472
M-833 0.123457 uM, 0 mM GlcN
  sample/DMSO: 3.306 and 10.0306 and 17.9209 and 10.4229
M-833 0.123457 uM, 0.25 mM GlcN
  sample/DMSO: 21.665 and 12.0728 and 20.7856 and 13.6953
M-833 0.123457 uM, 2.5 mM GlcN
  sample/DMSO: 31.9676 and 15.6301 and 24.5056 and 24.9447
M-833 0.37037 uM, 0 mM GlcN
  sample/DMSO: 13.628 and 22.7795 and 30.4444 and 24.0457
M-833 0.37037 uM, 0.25 mM GlcN
  sample/DMSO: 34.9176 and 21.471 and 31.1561 and 33.3027
M-833 0.37037 uM, 2.5 mM GlcN
  sample/DMSO: 40.447 and 24.7651 and 37.6894 and 48.2393
M-833 1.11111 uM, 0 mM GlcN
  sample/DMSO: 28.3402 and 44.5509 and 44.7966 and 56.0914
M-833 1.11111 uM, 0.25 mM GlcN
  sample/DMSO: 53.0252 and 39.9238 and 58.0645 and 67.3975
M-833 1.11111 uM, 2.5 mM GlcN
  sample/DMSO: 64.9649 and 41.0107 and 63.8256 and 74.1417
M-833 3.33333 uM, 0 mM GlcN
  sample/DMSO: 62.0018 and 73.866 and 73.9333 and 81.5771
M-833 3.33333 uM, 0.25 mM GlcN
  sample/DMSO: 83.0296 and 69.5951 and 81.4805 and 87.3149
M-833 3.33333 uM, 2.5 mM GlcN
  sample/DMSO: 83.83 and 68.173 and 80.0856 and 88.1096
M-833 10 uM, 0 mM GlcN
  sample/DMSO: 89.1663 and 89.2589 and 93.2173 and 92.8571
M-833 10 uM, 0.25 mM GlcN
  sample/DMSO: 91.9813 and 85.912 and 92.402 and 91.8609
M-833 10 uM, 2.5 mM GlcN
  sample/DMSO: 89.5706 and 77.5672 and 88.9441 and 91.41
72 h, Fig 2B, SLI-N309K, 72 h, n = 3, unit only in x-axis title, read-out: EC50 (95% confidence interval)
  EC50: 992 nM
Fig 3C, SLI-N309K, 0 mM GlcN, n = 4, unit on plot axis, read-out: EC50 M-833 (95% confidence interval)
  EC50: 1620 nM
Fig 3C, SLI-N309K, 0.25 mM GlcN, n = 4, unit on plot axis, read-out: EC50 M-833 (95% confidence interval)
  EC50: 968 nM
Fig 3C, SLI-N309K, 2.5 mM GlcN, n = 4, unit on plot axis, read-out: EC50 M-833 (95% confidence interval)
  EC50: 645 nM
SLI-N309K, Fig 2B
  fold more resistant than the 3D7 parental parasites: 10 fold
SLI-N309K, not statistically significant
  fold reduction of EC50 on addition of 2.5 mM GlcN: 2.5 fold
